The values that follow come from US3937612A, “Dialkylphosphonoacetylurea compounds and processes for preparation and use for flameproofing” (priority 1974, dated 1976).

The nature of this data set: Water solubility (stated in words). Type of data set: physicochemical. On the procedure: While stirring, 682 gm (5 mol) of chloroacetylurea were added portionwise to 831 gm (5 mol) of triethyl phosphite at a temperature of 135°C to 150°C. Each time, the addition of the next portion was delayed until the violent gas evolution had abated. After the last portion of chloracetylurea had been added, the stirring was continued at 150°Cuntil the evolution of gas was terminated. Small quantities of a volatile substance distilled off when the reaction mixture was heated on the water bath under the vacuum generated by an oil pump. The reaction mixture solidified upon cooling. […] The yield of crude product was 1120 gm (94% of the theory).

Structures are written as SMILES.

With `CCOP(=O)(CC(=O)NC(N)=O)OCC` [diethylphosphonoacetylurea, Diethylphosphonoacetylurea], the water solubility entry is “water-soluble”.
